Values after ≈ are worked out from the molar mass of the structure shown.
What was measured:
physchem [1] = type: physicochemical
From the text: “Compound 1, Form C” or “Form C” or “API”” in the Examples herein refers to polymorph Form C of 2-(4-chlorophenyl)-N-((2-(2,6-dioxopiperidin-3-yl)-1-oxoisoindolin-5-yl)methyl)-2,2-difluoroacetamide. “Compound 1, Form A” or “Form A” in the Examples herein refers to polymorph Form A of 2-(4-chlorophenyl)-N-((2-(2,6-dioxopiperidin-3-yl)-1-oxoisoindolin-5-yl)methyl)-2,2-difluoroacetamide.

BON cells = experiment: Signaling and proliferation of BON cells, CellTiter-Glo assay (2D and 3D plates); type: cell-based; conditions: BON1, single agent
[2] = test system: BaF3 cells expressing hCRBN, hCRBN and JAK2 wt, or hCRBN and JAK2-V617F; experiment: Combination studies with JAK2 inhibitors in engineered BaF3 cells, CellTitre-Glo after 3 days; type: cell-based; conditions: IL3 dependent BaF3 lines
Protocol: (§1) Everolimus was included as a control. The cell viability was then measured by CellTitre-Glo® after 3 days.

[3] = test system: IL3 independent JAK2 V617F BaF3 cells; experiment: as above; type: cell-based; conditions: compared to the IL3 dependent lines
Protocol: as §1

[4] = test system: GSPT1 expression, mTOR activation, Mcl-1 expression and Caspase-3 cleavage in AML cells; experiment: Immunoblot analysis of AML cells treated with Compound 1 and everolimus; type: cell-based; conditions: AML cell lines HNT-34 and KG1, Compound 1 alone
From the text: Whole cell extracts were collected and subjected to immunoblot analysis.

physchem [5] = conditions: aqueous with cosolvent or surfactant or cyclodextrin
Protocol: In the first precipitation study, four solution formulations were prepared at a Kleptose concentration of 100 mg/mL. […] Then the solutions were stored in three conditions: (1) at ambient condition with mild mixing; (2) at ambient condition without mixing; (3) at 2-8° C. without mixing.
The corresponding drug concentration of each formulation was 300, 400, and 500 μg/mL so that the supersaturation ratio was about 5× for all the three formulations. […] In the study, the same experiments were repeated twice to evaluate the reproducibility of the results.

## O=C1CCC(N2Cc3cc(CNC(=O)C(F)(F)c4ccc(Cl)cc4)ccc3C2=O)C(=O)N1 (centres unmarked) [Compound 1, 2-(4-chlorophenyl)-N-((2-(2,6-dioxopiperidin-3-yl)-1-oxoisoindolin-5-yl)methyl)-2,2-difluoroacetamide]
Physchem [1]
  Hygroscopicity: Not hygroscopic
  Solid State Stability: DS is physically stable under all storage conditions.
Physchem [1]; pH 5
  chemical stability in solution: chemically instable in solution above pH 5
Physchem [1]; water
  solubility: ≤ 1 µg/mL
BON cells
  standalone activity on proliferation: no standalone activity
[2]
  difference in single agent effect on cell viability between cell lines: no difference
[3]
  single agent sensitivity: more sensitive
[4]
  GSPT1 degradation, Caspase-3 cleavage and Mcl-1 loss: sufficient to induce robust GSPT1 degradation, Caspase-3 cleavage, and Mcl-1 loss
Physchem [5]
  solubility at 2 days: 135 µg/mL (≈ 292 µM)
  solubility at 9 days: 115 µg/mL (≈ 249 µM)
  solubility at 34 days: 98 µg/mL (≈ 212 µM)
